Measurements: ChEMBL document CHEMBL1150926, “A new meroditerpenoid dimer from an undescribed Philippine marine sponge of the genus Strongylophora” (J Nat Prod, 1998)
≈ marks a conversion by molar mass, not a printed value. Calls of active or inactive are those of the source. The calls are words filed in the database; no cut-off is given here.

Key:
Micrococcus luteus = test: Antibacterial activity against Micrococcus luteus at 100 ug/disk after 24 hrs by agar plate diffusion method; type: functional
Salmonella typhi = test: Antibacterial activity against Salmonella typhii at 100 ug/disk after 24 hrs by agar plate diffusion method; type: functional
Bacillus subtilis = test: Antibacterial activity against Bacillus subtilis 168 at 100 ug/disk after 24 hrs by agar plate diffusion method; type: functional, organism-based; conditions: subsp. subtilis str. 168
Staphylococcus aureus = test: Antibacterial activity against Staphylococcus aureus ATCC 25923 at 100 ug/disk after 24 hrs by agar plate diffusion method; type: functional, organism-based
Escherichia coli = test: Antibacterial activity against Escherichia coli ATCC 25922 at 100 ug/disk after 24 hrs by agar plate diffusion method; type: functional, organism-based
[1] = Toxicity against Artemia salina assessed as mortality after 48 hrs; type: organism-based; conditions: in vivo
Cladosporium cucumerinum [2] = test: Antifungal activity against Cladosporium cucumerinum at 0.80 umol after 2 days; type: functional
Cladosporium cucumerinum [3] = test: Antifungal activity against Cladosporium cucumerinum at 0.10 umol after 2 days; type: functional
Spodoptera littoralis [4] = test: Insecticidal activity against Spodoptera littoralis larvae assessed as inhibition of larval growth at 530 ppm treated in artificial diet after 6 days; type: functional; design: scale not given: the % may be the effect or the level left
Spodoptera littoralis [5] = test: Insecticidal activity against Spodoptera littoralis larvae assessed as inhibition of larval growth treated in artificial diet after 6 days; type: functional, organism-based

Row | Structure (SMILES) | zone of inhibition at 100 µg/disc (Micrococcus luteus; read-out: IZ) | Activity (Salmonella typhi; Salmonella enterica subsp. enterica serovar Typhi) | Activity (Bacillus subtilis) | Activity (Staphylococcus aureus) | Activity (Escherichia coli) | LC50 at 48 h [1] | Activity (Cladosporium cucumerinum [2]) | Activity (Cladosporium cucumerinum [3]) | Activity (Spodoptera littoralis [4]) | EC50 (Spodoptera littoralis [5]) | Activity (Micrococcus luteus) | zone of inhibition at 100 µg/disc (Salmonella typhi; Salmonella enterica, read-out: IZ) | inhibition zone (IZ) (Cladosporium cucumerinum [2]) | inhibition zone (IZ) (Cladosporium cucumerinum [3])
1 | C[C@@]12CC[C@@H]3[C@]4(CCC[C@@]3(C)C(=O)OC4)[C@H]1CC[C@]1(C)Oc3ccc(O)cc3C[C@@H]21 [strongylophorine-2] | 7 mm | inactive | inactive | inactive | inactive | 534 µg/mL (≈ 1300 µM) | inactive | inactive | – | – | – | – | – | –
2 | CC(=O)[C@@]1(C)CCC[C@]2(C)[C@H]3CC[C@]4(C)Oc5ccc(O)cc5C[C@H]4[C@]3(C)CC[C@H]21 [strongylophorine-4] | – | – | – | – | – | 143 µg/mL (≈ 349 µM) | inactive | inactive | – | – | – | – | – | –
3 | C[C@]12CCC[C@](C)(C(=O)O)[C@@H]1CC[C@]1(C)[C@@H]2CC[C@]2(C)Oc3ccc(O)cc3C[C@@H]12 [Strongylophorin-3] | – | – | inactive | inactive | inactive | 59.2 µg/mL (≈ 143 µM) | – | – | 90% | 69 ppm | inactive | 9 mm | 15 mm | 10 mm
4 | C[C@]12CC[C@H]3[C@@](C)(CCC[C@@]3(C)C(=O)O)[C@@H]1CC[C@@]1(C)Oc3c(O)ccc(Oc4ccc5c(c4)C[C@H]4[C@]6(C)CC[C@@H]7[C@](C)(CCC[C@]7(C)C(=O)O)[C@H]6CC[C@]4(C)O5)c3C[C@H]21 [DISTRONGYLOPHORINE] | – | – | – | – | – | 10.5 µg/mL (≈ 12.8 µM) | inactive | inactive | – | – | – | – | – | –
